Source: patent US7465751B2 (priority 2002, dated 2008)

Legend:
[1] = target: M3 muscarinic receptor (Rattus norvegicus, UniProt P08483); assay type: binding
[2] = target: M2 muscarinic receptor (Rattus norvegicus, UniProt P10980); assay type: binding
Sequence of M2 muscarinic receptor (P10980 whole entry): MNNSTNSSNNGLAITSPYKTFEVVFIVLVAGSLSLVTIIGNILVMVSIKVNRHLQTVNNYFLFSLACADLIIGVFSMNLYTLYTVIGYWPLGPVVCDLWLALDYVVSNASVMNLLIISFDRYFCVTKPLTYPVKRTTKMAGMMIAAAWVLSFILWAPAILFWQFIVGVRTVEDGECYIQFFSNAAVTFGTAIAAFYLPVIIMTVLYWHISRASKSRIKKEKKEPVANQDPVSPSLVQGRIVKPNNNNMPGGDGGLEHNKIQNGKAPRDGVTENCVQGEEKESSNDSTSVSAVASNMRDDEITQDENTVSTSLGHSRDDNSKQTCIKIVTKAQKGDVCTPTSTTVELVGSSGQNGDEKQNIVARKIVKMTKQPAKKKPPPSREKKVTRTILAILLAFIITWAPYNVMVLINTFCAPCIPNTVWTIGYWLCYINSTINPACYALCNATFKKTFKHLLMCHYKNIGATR

Sequence of M3 muscarinic receptor (P08483 whole entry): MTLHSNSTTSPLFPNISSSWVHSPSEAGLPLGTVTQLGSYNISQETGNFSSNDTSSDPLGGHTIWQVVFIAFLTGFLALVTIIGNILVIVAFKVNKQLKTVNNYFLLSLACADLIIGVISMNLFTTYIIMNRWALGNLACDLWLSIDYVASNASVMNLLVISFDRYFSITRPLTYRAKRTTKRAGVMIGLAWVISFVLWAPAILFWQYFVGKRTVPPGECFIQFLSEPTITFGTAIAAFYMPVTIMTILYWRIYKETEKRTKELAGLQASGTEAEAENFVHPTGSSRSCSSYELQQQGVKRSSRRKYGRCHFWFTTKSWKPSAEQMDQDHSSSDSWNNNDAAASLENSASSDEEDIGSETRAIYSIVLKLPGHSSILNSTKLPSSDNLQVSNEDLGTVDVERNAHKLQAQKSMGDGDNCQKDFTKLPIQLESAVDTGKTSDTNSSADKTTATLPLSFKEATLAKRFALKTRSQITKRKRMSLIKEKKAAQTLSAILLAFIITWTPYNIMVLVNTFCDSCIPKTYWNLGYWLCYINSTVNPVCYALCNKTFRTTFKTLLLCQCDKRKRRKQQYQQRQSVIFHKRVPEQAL

Which results are given for “(3S)-1-[(phenylacetyl)pyrrolidin-3-yl]cyclopentyl(hydroxy)phenyl acetate [Compound No. 11]”?
Receptor Binding Assay M3 pki [1]: <6; Receptor Binding Assay M2 PKi [2]: <6
